Reference: EP4745124A1, “NAPHTHALIMIDE-BASED CORONAVIRUS PAPAIN-LIKE PROTEASE INHIBITOR” (Guangzhou National Laboratory, priority 2023, dated 2025)
pIC50: −log10 of the molar value.

Molecular target: T1, SARS-CoV-2 PL^Pro (Severe acute respiratory syndrome coronavirus 2, UniProt P0DTD1)
T1 construct: SARS-CoV-2 PL^Pro catalytic domain (746-1060); made in house
Assay: biochemical
Conditions: SARS-CoV-2 PLPro catalytic domain (746-1060), 10 minutes pre-incubation; read-out: PLpro IC50

Cc1ccc(N2C[C@H]3C[C@@H]2CN3C)cc1C(=O)NC1(c2ccc3c4c(cccc24)C(=O)N3C)CC1 [Compound P40, 2-Methyl-N-(1-(1-methyl-2-oxo-1,2-dihydrobenzo[cd]indol-6-yl)cyclopropyl)-5-((1R,4R)-5-methyl-2,5-diazabicyclo[2. 2.1]heptan-2-yl)benzamide] and Cc1ccc(N2CC(N3CCC(O)C3)C2)cc1C(=O)NC1(c2ccc3c4c(cccc24)C(=O)N3C)CC1 (stereo not shown) [Compound P43, 5-(3-(3-hydroxypyrrolidin-1-yl)azetidin-1-yl)-2-methyl-N-(1-(1-methyl-2-oxo-1,2-dihydrobenzo[cd]indol-6-yl)cyclopropyl)benzamide] cannot be ordered by pIC50: > 7.40 for the first, > 7.40 for the second.

Cc1ccc(N2CCN(CC(C)O)CC2)cc1C(=O)NC1(c2ccc3c4c(cccc24)C(=O)N3C)CC1 (stereo not shown) [Compound P41, 5-(4-(2-hydroxypropyl)piperazin-1-yl)-2-methyl-N-(1-(1-methyl-2-oxo-1,2-dihydrobenzo[cd]indol-6-yl)cyclopropyl)be nzamide] and Cc1ccc(N2CCN(CC(C)(C)O)CC2)cc1C(=O)NC1(c2ccc3c4c(cccc24)C(=O)N3C)CC1 [Compound P49, 5-(4-(2-Hydroxy-2-methylpropyl)piperazin-1-yl)-2-methyl-N-(1-(1-methyl-2-oxo-1,2-dihydrobenzo[cd]indol-6-yl)cyclopropyl)benzamide] cannot be ordered by pIC50: > 7.40 for the first, > 7.40 for the second.

Compared with Cc1ccc(N2CC(N3CCN(C)C(=O)C3)C2)cc1C(=O)NC1(c2ccc3c4c(cccc24)C(=O)N3C)CC1 [Compound P44, 2-Methyl-N-(1-(1-methyl-2-oxo-1,2-dihydrobenzo[cd]indol-6-yl)cyclopropyl)-5-(3-(4-methyl-3-oxopiperazin-1-yl)azetidin-1-yl)benzamide], Cc1ccc(N2CC(N3CCCC3)C2)cc1C(=O)NC1(c2ccc3c4c(cccc24)C(=O)N3C)CC1 [Compound P45, 2-methyl-N-(1-(1-methyl-2-oxo-1,2-dihydrobenzo[cd]indol-6-yl)cyclopropyl)-5-(3-(pyrrolidin-1-yl)azetidin-1-yl)benzamide] is higher in pIC50: 6.00 to 7.00 for the first, > 7.40 for the second.

First: Cc1ccc(N2CCC(N3CCCC3)C(F)(F)C2)cc1C(=O)NC1(c2ccc3c4c(cccc24)C(=O)N3C)CC1 (stereo not shown) [Compound P48, 5-(3,3-difluoro-4-(pyrrolidin-1-yl)piperidin-1-yl)-2-methyl-N-(1-(1-methyl-2-oxo-1,2-dihydrobenzo[cd]indol-6-yl)cyclopropyl)benzamide]
Second: Cc1ccc(N2CCC(N3CCCCC3)C2)cc1C(=O)NC1(c2ccc3c4c(cccc24)C(=O)N3C)CC1 (stereo not shown) [Compound P50, 2-Methyl-N-(1-(1-methyl-2-oxo-1,2-dihydrobenzo[cd]indol-6-yl)cyclopropyl)-5-(3-(piperidin-1-yl)pyrrolidin-1-yl)benz amide]
The pIC50 of the first is lower: 6.00 to 7.00 for the first, > 7.40 for the second.

Cc1ccc(N2CCN(CCN(C)C)CC2)cc1C(=O)NC1(c2ccc3c4c(cccc24)C(=O)N3C)CC1 [Compound P52, 5-(4-(2-(Dimethylamino)ethyl)piperazin-1-yl)-2-methyl-N-(1-(1-methyl-2-oxo-1,2-dihydrobenzo[cd]indol-6-yl)cyclopropyl)benzamide] was tested, and the pIC50 was 6.00 to 7.00.

Same assay, conditions: read-out: PLpro IC50

First: Cc1ccc(N2CC(N3CCC3)C2)cc1C(=O)NC1(c2ccc3c4c(cccc24)C(=O)N3C)CC1 [Compound P42, 5-([1,3'-diazetidin]-1'-yl)-2-methyl-N-(1-(1-methyl-2-oxo-1,2-dihydrobenzo[cd]indol-6-yl)cyclopropyl)benzamide]
Second: Cc1ccc(N2CC(N3CCOCC3)C2)cc1C(=O)NC1(c2ccc3c4c(cccc24)C(=O)N3C)CC1 [Compound P46, 2-methyl-N-(1-(1-methyl-2-oxo-1,2-dihydrobenzo[cd]indol-6-yl)cyclopropyl)-5-(3-morpholinazetidin-1-yl)benzamide]
The pIC50 of the first is higher: > 7.40 for the first, 6.00 to 7.00 for the second. The first is the more potent here.

Compared with Cc1ccc(N2CC3CCN(C)C3C2)cc1C(=O)NC1(c2ccc3c4c(cccc24)C(=O)N3C)CC1 (stereo not shown) [Compound P47], Cc1ccc(N2CCN(CCCS(C)(=O)=O)CC2)cc1C(=O)NC1(c2ccc3c4c(cccc24)C(=O)N3C)CC1 [Compound P51] is lower in pIC50: > 7.40 for the first, 7.00 to 7.40 for the second. The first is the more potent here.
